These results are taken from PubChem BioAssay (NCI).

What all share (test): inhibition of tumour cell growth, NCI panel, 48 h
In experiment [1] the test system is EKVX NSCLC.
Experiment [2] concerns NCI-H460 lung.
Experiment [3] has as its system CCRF-CEM leukemia.
In experiment [4] the test system is M14 melanoma.
Experiment [5] has as its system SW-620 colon.
Experiment [6] concerns OVCAR-4 ovarian.
Experiment [7] relates to UACC-257 melanoma.
For experiment [8], the system named is MALME-3M melanoma.
Experiment [9] concerns A498 renal.
Experiment [10] relates to SK-MEL-2 melanoma.

Values joined by “and” are separate entries in the source; they are usually repeats but may differ in a detail not shown here. Equal values may be shown once.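 Grown in 96-well plates, cells were treated for 48 hours with each compound at five concentrations. Insufficient inhibition: endpoint recorded as highest concentration tested. GI50: concentration for 50% inhibition of growth. TGI denotes the concentration required for complete inhibition of growth.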 A value given as a limit tells only on which side of the number the result lay.

Consider `COc1ccc(/C=C/c2cc(OC)c(OC)c(OC)c2)cc1OC`, for which the TGI in experiment [1], in experiment [2], in experiment [3], in [4], in experiment [5] and in experiment [6] was greater than 100 µM each time. Further, the TGI in experiment [7], in experiment [8], in experiment [9] and in [10] was greater than 100 µM in each case.

For `O=[N+]([O-])c1cc(I)cc(/C=N/NS(=O)(=O)c2ccc(F)cc2)c1O`, the TGI in [1] was 92.9 µM; in [2], 44 µM; in experiment [3] it was 53.9 µM; in experiment [4], 82.3 µM; in experiment [5], greater than 100 µM; in [6], greater than 100 µM. Further, the TGI in experiment [7] worked out at 62.3 µM; in experiment [8] it was 52.4 µM; in experiment [9] it was 91.6 µM; in [10], 35.7 µM.

`NC(=O)c1ccc(I)c([N+](=O)[O-])c1`: the GI50 in experiment [1] is 27.1 µM; in experiment [2], greater than 100 µM; in experiment [3] it was greater than 63.7 µM; in [4], greater than 86 µM; in experiment [5], greater than 100 µM; in experiment [6], 17.2 µM. Also, the GI50 in [7] is greater than 80.4 µM; in [8] it was 41 µM; in experiment [9] it was greater than 78.7 µM; in [10], greater than 100 µM. The TGI in experiment [1] was greater than 65 µM; in [2], greater than 100 µM; in [3], greater than 100 µM; in [4], greater than 100 µM; in experiment [5], greater than 100 µM; in experiment [6], 32.1 µM. Also, the TGI was greater than 100 µM in experiment [7], greater than 72.9 µM in experiment [8], greater than 100 µM in experiment [9] and greater than 100 µM in experiment [10].

In the case of `COc1cccc(C2SC(C)C(=O)N2NC(=O)C(O)c2ccccc2)c1` (centres undefined), the GI50 was greater than 100 µM in experiment [1]; greater than 100 µM in experiment [2]; greater than 100 µM in experiment [3]; greater than 100 µM in [4]; greater than 100 µM in experiment [5]; 41.7 µM in experiment [6]. Besides, the GI50 in experiment [7], in [8], in experiment [9] and in experiment [10] was greater than 100 µM each time. Further, the TGI in experiment [1], in [2], in experiment [3], in experiment [4], in experiment [5] and in experiment [6] was greater than 100 µM in each case. For the same molecule, the TGI in experiment [7], in experiment [8], in experiment [9] and in experiment [10] was greater than 100 µM throughout.

Consider `Oc1c(CN2CCCCC2)ccc2cccnc12`, for which the GI50 in experiment [1] is 3.26 µM; in [2], 2.31 µM; in experiment [3] it was 3.21 µM; in experiment [4], 2.3 µM; in [5], 4.26 µM; in experiment [6], 2.98 µM. Besides, the GI50 in [7] was 2.91 µM; in experiment [8], 7.18 µM; in [9] it was 5.46 µM; in experiment [10] it was 4.03 µM. Moreover, the TGI in [1] was 37.4 µM; in experiment [2], 7.62 µM; in experiment [3] it was greater than 100 µM; in experiment [4], 8.06 µM; in experiment [5] it was 18 µM; in experiment [6], 9.59 µM. Besides, the TGI in experiment [7] amounted to 83.3 µM; in [8] it was 52.5 µM; in experiment [9], 21.3 µM; in [10] it was 24.4 µM.

On to `COc1ccc2c(c1)/C(=C\c1c(-c3ccccc3)nc3sccn13)C(=O)N2`, for which the GI50 is 12.1 µM in experiment [1]; 7.08 µM in experiment [2]; 5.5 µM in experiment [3]; 7.11 µM in [4]; 15.6 µM in experiment [6]; 28.7 µM in experiment [7]. Besides, the GI50 is 39.7 µM in experiment [8], 0.63 µM in [9] and 18 µM in [10]. Besides, the TGI in [1] was greater than 43.6 µM; in [2], greater than 24.4 µM; in experiment [3] it was greater than 100 µM; in [4], 18.4 µM; in experiment [5] it was greater than 49.6 µM; in experiment [6] it was greater than 96.8 µM. For the same molecule, the TGI in [7] stood at 89.3 µM; in experiment [8], 97.1 µM; in experiment [9], 5.11 µM; in [10] it was 44.5 µM.

As to `C[C@]1(c2nc3c(C(N)=O)cccc3[nH]2)CCCN1`, the GI50 in [1] is greater than 100 µM; in [2], 35.5 µM and 48.6 µM; in experiment [3], greater than 100 µM; in experiment [4], greater than 100 µM; in experiment [5], 89.4 µM and > 100 µM; in experiment [6], 66.1 µM and > 100 µM. The GI50 in experiment [7] was 99.9 µM and > 100 µM; in experiment [8], 43.4 µM and > 85.8 µM; in [9] it was greater than 100 µM; in experiment [10], 79.4 µM and > 100 µM. The TGI in [1], in experiment [2], in experiment [3], in experiment [4], in [5] and in experiment [6] was greater than 100 µM in each case. The TGI in [7] is greater than 100 µM; in [8], 97.9 µM and > 100 µM; in [9], greater than 100 µM; in experiment [10] it was greater than 100 µM.
